The values that follow come from patent publication EP2813571A1, “Method for the treatment of lung cancer” (Institut d'Investigació Biomèdica de Bellvitge (IDIBELL), priority 2013, dated 2014).

Molecules are shown by their SMILES.

One assay has as its system NCI-H1395. Briefly: MTT cell viability assay. Conditions: Homo sapiens, SETDB1 amplified cell line NCI-H1395. In kind it is cell-based. An excerpt: (§1) The observation that the presence of the SETDB1 gene amplification with associated overexpression was critical for the tumorigenesis of these lung cancer cells prompted the inventors to examine whether drugs targeting this pathway might find a therapeutic "niche" for their use in the described subset of cases with extra copies of this gene. No highly specific inhibitor for SETDB1 has been described in the publicly available literature, but one agent-mithramycin- is a clinically approved anti-tumor antibiotic that binds to DNA by interacting with the minor groove and displacing transcriptional activators that bind to GC-rich binding sites. Thus, the inventors tested whether a putative growth-inhibitory effect of this drug in lung cancer cells was dependent on SETDB1 expression. First, western blot analyses for the SETDB1 protein in the SETDB1 amplified lung cancer cell lines DMS-273, NCI-H1437 and NCI-H1395 upon the use of the drug were developed. […] Experiments for each clone were performed in triplicate. Furthermore, we extended the cell viability experiments, using the MTT assay, to the other two SETDB1 amplified lung cancer cell lines (NCI-H1437 and NCI-H1395) and to three SETDB1 non-amplified lung cancer cell lines (DMS-114, A549 and NCI-H1299). […] Thus, the presence of SETDB1 gene amplification could "mark" lung cancer cells that are more sensitive to the inhibition of cell viability associated with the use of mithramycin.
In general terms: Formazan colour is commonly taken as a measure of viable cells.

In a further assay the test system is DMS-114. Briefly: MTT cell viability assay. Format: cell-based. Particulars: Homo sapiens, SETDB1 non-amplified cell line DMS-114.
Description: as §1

The subject of another assay is A549. Briefly: MTT cell viability assay. Conditions: Homo sapiens, SETDB1 non-amplified cell line A549. In kind it is cell-based.
Description: as §1

For a further assay, the system named is CL1-5. Conditions: Lin and Wang 2007; cited from earlier work.
Another assay relates to SETDB1 protein. Briefly: Western blot for SETDB1 protein after drug treatment of SETDB1 amplified lung cancer cell lines. Particulars: DMS-273, NCI-H1437 and NCI-H1395. Format: cell-based, human. How it is done:
(§2) • Figure 1. Determination of SETDB1 gene amplification and its association with RNA and protein overexpression in lung cancer cell lines. (A) Assessment of SETDB1 copy number by quantitative genomic PCR. Amplification frequency of SETDB1 (evaluated with SYBR Green) was calculated by the standard curve method using the 7900HT SDS program. To define an internal control gene chromosome 1p36.23 was chosen because it is the least aneuploid region among our cell lines (PEX19 gene). DNA from normal lung was used as the reference standard. Results are reported as n-fold copy number increase relative to the PEX19 gene. […] The internal control gene was ACTB (beta-actin). • Figure 2. Growth-promoting effects of SETDB1 in lung cancer. (A) Stable down-regulation of the SETDB1 gene by short hairpins using two different target sequences for DMS-273 (clones A30/A31 and clone B32-63) and NCI-H1437 (clones A56-B and B46-9). […] Tumor volume was monitored over time and the tumor was excised and weighed at 30 days. […] (A) Effect of SETDB1 on the invasion potential of A549 cells determined by the matrigel invasion assay. […] Invasive cells were counted using ImageJ 1.45s (Wayne Rasband, National Institutes of Health, USA) and the percentage of invasive cells was represented. Results are the mean of at least three experiments by duplicate and the significance was determined using ANOVA-test. *p<0.05. […]
(Immunoblotting shows a protein as a band on a membrane.)

For the next assay, the system named is H647. Conditions: Lin and Wang 2007; cited from earlier work.
Another assay has as its system CL1-5 cells. Particulars: Lin and Wang 2007; cited from earlier work.
A further assay has as its system DMS-273. In words: MTT cell viability assay. In kind it is cell-based, human. Conditions: scramble shRNA DMS-273 cells compared with SETDB1-depleted clones; triplicate. As for the experimental part:
as §2

A further assay deals with NCI-H1437. Briefly: MTT cell viability assay. In kind it is cell-based. Particulars: Homo sapiens, SETDB1 amplified cell line NCI-H1437. As for the experimental part:
as §2

The subject of a further assay is NCI-H1299. Briefly: MTT cell viability assay. Format: cell-based. Particulars: Homo sapiens, SETDB1 non-amplified cell line NCI-H1299. How it is done:
as §2

Broadly, the EC50 is the concentration giving half of the maximal effect. Low values mean a more potent agent, high ones a less potent agent. `CO[C@H](C(=O)[C@@H](O)[C@@H](C)O)[C@@H]1Cc2cc3cc(O[C@H]4C[C@@H](O[C@H]5C[C@@H](O)[C@H](O)[C@@H](C)O5)[C@H](O)[C@@H](C)O4)c(C)c(O)c3c(O)c2C(=O)[C@H]1O[C@H]1C[C@@H](O[C@H]2C[C@@H](O[C@H]3C[C@](C)(O)[C@H](O)[C@@H](C)O3)[C@H](O)[C@@H](C)O2)[C@H](O)[C@@H](C)O1` [mithramycin, (1S)-5-deoxy-1-C-((2S,3S)-7-{[2,6-dideoxy-3-O-(2,6-dideoxy-β-D-arabino-hexopyranosyl)-β-D-arabino-hexopyranosyl]oxy}-3-{[2,6-dideoxy-3-C-methyl-β-D-ribo-hexopyranosyl-(1→3)-2,6-dideoxy-β-D-arabino-hexopyranosyl-(1→3)-2,6-dideoxy-β-D-arabino-hexopyranosyl]oxy}-5,10-dihydroxy-6-methyl-4-oxo-1,2,3,4-tetrahydroanthracen-2-yl)-1-O-methyl-D-xylulose]: the EC50 in the assay on NCI-H1395 is 14.7 nM; in the assay with DMS-114, 348 nM; in the assay with A549, 122 nM; in the assay on NCI-H1437 it was 13.6 nM; with NCI-H1299, 32 nM. The “growth of human lung cancer cell lines” value in the assay with CL1-5 and in the assay on H647 was “inhibiting the growth” each time. In the assay with SETDB1 protein, the SETDB1 expression entry is “inhibit SETDB1 expression”. For the same compound, the invasion phenotypes entry in the assay on CL1-5 cells is given as “inhibiting the invasion phenotypes”. Besides, the “sensitivity to the growth-inhibitory effect” value in the assay with DMS-273 is recorded as “significantly more sensitive”.
